Series [1] deals with rats. The experiment in a line: rat-tail flick method of D'Amour and Smith. Type of series: in vivo. The following applies: 5.0 mg/kg. i.v. How it is done:
In this procedure, a representative polypeptide of this invention, N-Me-Tyr-D-Ser-Gly-N-Me-Phe-D-Ser-NH2,acetate, produced significant analgesia in rats upon administration at a dose as low as 0.1 mg/kg. intravenously, and 0.5 mg/kg. subcutaneously.
When N-Me-Tyr-D-Ser-Gly-N-Me-Phe-D-Ser-NH2, acetate was tested in the rat-tail flick procedure of D'Amour and Smith (supra), the following results were obtained: […]

Series [2] deals with mouse vas deferns. The following applies: mouse vas deferens, like morphine; cited from earlier work.
The test system of series [3] is guinea pig ileum. The following applies: like morphine; cited from earlier work.
In series [4] the test system is opiate receptor. The settings on record: brain homogenates; cited from earlier work.

Turning to `CN[C@@H](Cc1ccc(O)cc1)C(=O)N[C@H](CO)C(=O)NCC(=O)N(C)[C@@H](Cc1ccccc1)C(=O)N[C@H](CO)C(N)=O` [N-Methyl-Tyrosyl-D-Serylglycyl-N-MethylPhenylalanyl-D-Serinamide. Acetate], the dead in series [1] is 3/6.

In the case of “H-Tyr-Gly-Gly-Phe-Met-OH [methionine-enkephalin]”, the “effect on electrically evoked contractions” value in series [2] and in series [3] was “block electrically evoked contractions” throughout. Moreover, in series [4], the “effect on stereospecific receptor binding of 3H-naloxone” value is on record as “inhibit”.

On to “H-Tyr-Gly-Gly-Phe-Leu-OH [leucine-enkephalin]”, for which the “effect on electrically evoked contractions” value in series [2] and in series [3] was “block electrically evoked contractions” in each case. In addition, in series [4], the “effect on stereospecific receptor binding of 3H-naloxone” value was “inhibit”.

The values above are taken from patent US4278596A, “Analgesic pentapeptides” (American Home Products Corporation, priority 1978, dated 1981).
